Type in all cases: in vivo, rabbit
In assay [1] the test system is rhinosinusitis induced by lipopolysaccharide (LPS). Put plainly: Histological scoring of sino-nasal inflammation (score 0-3) in rabbits with LPS-induced rhinosinusitis. The settings on record: for Epithelial desquamation / Mucous gland damage: score 0-3 (0 absence of damage, 1 slightly, 2 moderately, 3 strongly damaged); for Epithelial desquamation / Mucous gland damage / Leukocyte infiltrate of mucous membrane / Mononuclear infiltrate of mucous membrane: median (1st; 3rd quartile), n = 6; for Epithelial desquamation / Mucous gland damage / Leukocyte infiltrate of mucous membrane / Mononuclear infiltrate of mucous membrane / Inflammation degree in different zones: Olfactory region / Inflammation degree in different zones: Respiratory region / Inflammation degree in different zones: Vestibule / Inflammation type: Post-inflammatory hyperplasia of goblet cells / Inflammation type: acute catarrhal rhinosinusitis / Inflammation type: acute purulent rhinosinusitis: intranasal once daily for seven days; for Leukocyte infiltrate of mucous membrane / Mononuclear infiltrate of mucous membrane: score 0-3 (0 none, 1: 1 to 5, 2: 6 to 10, 3: more than 10 cells in the zone); for Inflammation degree in different zones: Olfactory region / Inflammation degree in different zones: Respiratory region / Inflammation degree in different zones: Vestibule / Inflammation type: Post-inflammatory hyperplasia of goblet cells / Inflammation type: acute catarrhal rhinosinusitis / Inflammation type: acute purulent rhinosinusitis: scoring from 0 to 3, median (quartiles); for Overall therapeutic effect / activity against rhinosinusitis: conclusion of the histological examination, compared to non-treated or placebo-treated animals. The protocol:
(§1) 42 male rabbits were used in this study. Animals were separated into seven groups, each containing six rabbits. The 1st group served as an untreated control, the second group was treated with a 0.9% NaCl solution, and five experimental groups were used to test the different formulations: onion peel extract, quercetin+2-(3,4-dihydroxybenzoyl)-2,4,6-trihydroxy-3(2H)-benzofuranone quercetin, quercetin-4′-glycoside and protocatechuic acid.
(§2) Rhinosinusitis was induced by introduction of 100 μL of 1% lipopoysaccharide (LPS) in each nasal cavity of the rabbits for three days (Dong-Hyun Kim et all, 2011).
(§3) The following concentrations of composition were tested:
(§4) onion peel water extract—1 mg/mL;
(§5) the mixture of quercetin—0.009 mg/mL and 2-(3,4-dihydroxybenzoyl)-2,4,6-trihydroxy-3(2H)-benzofuranone—0.001 mg/mL;
(§6) quercetin-4′-glycoside—0.25 mg/mL;
(§7) protocatechuic acid—0.25 mg/mL.
(§8) The compounds were diluted in solutions of 0.9-1% sodium chloride or in the solution containing 0.75% NaCl+0.25% NaHCO3 heated to 37° C. before administration. Except for the mixture of quercetin+2-(3,4-dihydroxybenzoyl)-2,4,6-trihydroxy-3(2H)-benzofuranone, which was suspension, all formulations were slightly opalescent-colored solutions.
(§9) 2 mL of the solutions was administered intranasally in each nasal cavity once daily for seven days. In order to get the maximal contact of nasal cavity with the tested substances, rabbits were kept in the “head down” position during administration.
(§10) The day after the last administration of the substances, animals were sacrificed by an overdose of a general anesthetics: Zoletil (Virbac, France) and Rometar (Bioveta, Czech Republic).
(§11) After macroscopic examinations, the nasal parts of rabbits' heads were fixed in 10% formaldehyde for 24 hours, then decalcified for 14 days in a hydrochloric acid/water (25:1) solution. Then, the noses of the animals were sectioned transversally at four levels: A—at the incisors; B— in a zone posterior to the incisors, C— at the second palatal ridge, and D—at the first premolar tooth. Tissues were then washed with water for 12 hours and embedded in paraffin using conventional methods. Histological sections of 3-5 μm were prepared from these tissues using microtome. In order to examine goblet cells and their glucosamine content, the tissue sections were stained with alcian blue at pH 2.5. Some tissue sections were re-stained with haematoxylin and eosin for further histological examinations.
(§12) Morphological investigation of histological preparations was performed using optical microscope CarlZeissAxioScopeA1 (Germany) at magnifications of 25×, 50×, 100×, 200× and 400×. Microphotographs of samples were taken using a digital camera AxioCamlCc 1 and AxioVisionRel.4.8 software (Germany). Morphometric measurements were taken using AxioVisionRel.4.8 software (Germany).
The appearance, severity of acute catarrhal rhinosinusitis, acute purulent rhinosinusitis and occurrence of post-inflammatory hyperplasia of goblet cells were evaluated by examining the degree of inflammatory lesions in various zones: vestibule, respiratory region, olfactory region and paranasal sinuses.
The degree of epithelial desquamation and mucociliary gland damage was scored along a scale from 0 to 3, where:
The degree of mononuclear and leukocyte cell infiltration was evaluated by scoring from 0 to 3, where:
0—no mononuclear cells present in the zone of examination;
1—1 to 5 mononuclear cells present in the zone of examination;
2—6 to 10 mononuclear cells present in the zone of examination;
3—more than 10 mononuclear cells present in the zone of examination.
All data were analyzed using descriptive statistics. The normality of data distribution was verified by Shapiro-Wilks test. In the case of normality, the mean and the standard error of the mean (s.e.m) were calculated and presented in tables together with n (number of values). […] The differences between groups were analyzed using parametric or non-parametric tests depending on the distribution type. […]

Assay [2] shares this test system. The assay is described as follows: Goblet cell morphometric study (alcian blue staining) in rabbits with LPS-induced rhinosinusitis. To be noted: for Number of alcian positive cells on 1 mm of epithelium / Number of goblet cells on 1 mm of epithelium / Ratio of alcian positive cells to total number of goblet cells, in %: rabbits, 2 mL intranasally in each nasal cavity once daily for seven days, M ± s.e.m., n = 6. The protocol: as §1, §2, §3, §4, §5, §6, §7, §8, §9, §10, §11, §12
Goblet cells were counted within 1 mm of the respiratory zone of the epithelium.
All data were analyzed using descriptive statistics. The normality of data distribution was verified by Shapiro-Wilks test. In the case of normality, the mean and the standard error of the mean (s.e.m) were calculated and presented in tables together with n (number of values). […] The differences between groups were analyzed using parametric or non-parametric tests depending on the distribution type. The analysis of normally distributed data was done using the unifactorial dispersion analysis test (ANOVA), and further post-hoc analysis was done using Tukey's method. The data not corresponding to the normal distribution were analyzed using the non-parametric Kruskal-Wallis test, and the differences between groups were analyzed using the Mann-Whitney test. The difference was determined at a significance level of 0.05.

Assay [3] has the same test system. Put plainly: Visual (macroscopic) examination of rabbits with LPS-induced rhinosinusitis. To be noted: in words; after seven days of treatment. The protocol:
as §1, §2, §8, §9
The nasal cavities of the animals were subjected to visual examinations immediately after euthanasia.

Marks after values point to notes of the source that are not given here.

This is an account of results in US11351145B2, “Quercetin-based composition for treating rhinosinusitis” (APHABIO THERAPEUTICS, priority 2017, dated 2022).

`O=c1c(O)c(-c2ccc(O)c(O)c2)oc2cc(O)cc(O)c12` [Quercetin, quercetin]: in assay [1] (in words), the “Acute purulent rhinosinusitis (observation)” value is reported as “no sign” and the “Post-inflammatory hyperplasia of the goblet cells (observation)” value was “no sign”. In addition, in assay [1], the Epithelial desquamation is 0.5(0.0; 1.0) score, the Mucous gland damage is listed as 0.5(0.0; 2.0) score, the “Leukocyte infiltrate of mucous membrane” value is on record as 2.0(2.0; 2.0) score and the “Mononuclear infiltrate of mucous membrane” value (from here on “Mononuclear infiltrate”) is reported as 1.0 (1.0; 1.0) score. Besides, in assay [1], the “Inflammation degree in different zones: Olfactory region” value amounted to 1.0, the “Inflammation degree in different zones: Respiratory region” value is 2.0, the “Inflammation degree in different zones: Vestibule” value worked out at 0.0 and the “Inflammation type: Post-inflammatory hyperplasia of goblet cells” value (“Inflammation type … of goblet cells” for short) is given as 0.0. Moreover, in assay [1], the “Inflammation type: acute catarrhal rhinosinusitis” value came to 2.0 and the “Inflammation type: acute purulent rhinosinusitis” value is on record as 0.0. In addition, in assay [2], the “Number of alcian positive cells on 1 mm of epithelium” value (from here on “Number of alcian positive cells”) came to 21.3 ± 6.49; the “Number of goblet cells on 1 mm of epithelium” value was found to be 43.0 ± 6.46; the “Ratio of alcian positive cells to total number of goblet cells, in %” value (“Ratio of alcian positive cells … in %” below) turned out to be 47.2 ± 12.33%. Besides, in assay [3], the “Macroscopic (visual) examination findings” value (shortened to “Macroscopic”) was “No external changes were observed”.
With `O=C(O)c1ccc(O)c(O)c1` [Protocatechuic acid, protocatechuic acid], the “Leucocyte cell infiltration of the mucous membranes versus control group” value in assay [1] (in words, Kruskal-Wallis and Mann-Whitney tests) is on record as “lower than in control group”. In addition, in assay [1] (in words), the “Overall therapeutic effect / activity against rhinosinusitis” value was “moderate activity”. In assay [1], the Epithelial desquamation is 0.0(0.0; 1.0) score, the Mucous gland damage is on record as 1.0(0.0; 1.0) score, the “Leukocyte infiltrate of mucous membrane” value is reported as 0.5(0.0; 1.0)* score and the “Mononuclear infiltrate” value was 1.0 (1.0; 1.0) score. In assay [1], the “Inflammation degree in different zones: Olfactory region” value came out at 1.0, the “Inflammation degree in different zones: Respiratory region” value was found to be 1.0, the “Inflammation degree in different zones: Vestibule” value came to 0.0 and the “Inflammation type … of goblet cells” value was found to be 0.5. Also, in assay [1], the “Inflammation type: acute catarrhal rhinosinusitis” value is reported as 1.0 and the “Inflammation type: acute purulent rhinosinusitis” value was 0.0. Also, in assay [2], the “Number of alcian positive cells” value is given as 16.3 ± 5.82; the “Number of goblet cells on 1 mm of epithelium” value came to 44.0 ± 6.76; the “Ratio of alcian positive cells … in %” value is on record as 35.0 ± 9.01%. In assay [3], the “Macroscopic” value is “No external changes were observed”.
With `O=c1c(O)c(-c2ccc(O[C@@H]3O[C@H](CO)[C@@H](O)[C@H](O)[C@H]3O)c(O)c2)oc2cc(O)cc(O)c12` [Quercetin-4′-glycoside, quercetin-4′-glycoside], in assay [1] (in words), the “Epithelial desquamation (observation)” value is reported as “not observed” and the “Overall therapeutic effect / activity against rhinosinusitis” value is “moderate activity”. Besides, in assay [1], the Epithelial desquamation is 0.0(0.0; 0.0)* score, the Mucous gland damage is reported as 0.0(0.0; 1.0) score, the “Leukocyte infiltrate of mucous membrane” value was 1.0(1.0; 2.0) score and the “Mononuclear infiltrate” value is 1.0 (1.0; 1.0) score. Also, in assay [1], the “Inflammation degree in different zones: Olfactory region” value amounted to 0.5, the “Inflammation degree in different zones: Respiratory region” value worked out at 1.0, the “Inflammation degree in different zones: Vestibule” value was determined as 0.0 and the “Inflammation type … of goblet cells” value worked out at 1.0. Also, in assay [1], the “Inflammation type: acute catarrhal rhinosinusitis” value turned out to be 1.0 and the “Inflammation type: acute purulent rhinosinusitis” value stood at 0.0. The “Change in the number of goblet cells on 1 mm of epithelium compared to control” value in assay [2] (in words, ANOVA and Tukey's test) is on record as “Increase”. Moreover, in assay [2], the “Number of alcian positive cells” value worked out at 21.8 ± 6.78; the “Number of goblet cells on 1 mm of epithelium” value worked out at 65.6 ± 6.03; the “Ratio of alcian positive cells … in %” value is listed as 35.8 ± 11.13%. Besides, the “Macroscopic” value in assay [3] is “No external changes were observed”.
